Source: patent US4024082A, “Analgesics” (priority 1975, dated 1977)

Assays:
[1] = as described in U.S. Pat. No. 3,728,347; cited from earlier work
[2] = as described in U.S. Pat. No. 3,728,347; cited from earlier work; remark: listed apart in the source
[3] = humans; cited from earlier work
[4] = tested on: morphine analgesia; test: Antagonism of morphine analgesia, Haffner method; assay type: in vivo, male mice dd strain; settings: morphine 16 mg/kg subcutaneously
Procedure: (§1) The dl-KMG-86, d-KMG-86 and l-KMG-86 were all screened for their biological activity by the assays described in the reference J. Med. Chem. 16, 301 (1973). All three compounds were screened for their analgesic activity by the acetic acid induced stretching method of R. Kosta, Fed. Proc., Fed. Amer. Soc. Exp. Biol., 18, 412 (1959). Male albino mice dd strain (18.0-22.0 g.) were used. After the compounds were administered subcutaneously to five groups of animals consisting of ten mice per group, the effective ratio until 60 minutes was examined and the effective dose in 50% of the mice (ED50) was calculated by the Lichfield-Wilcoxin method [J. T. Lichfield and F. Wilcoxin, J. Pharmacol., 96, 99 (1949)]. […] Med. Wochenschr., 55, 731 (1929)], in which ten male mice dd strain per group were used.

[5] = tested on: acetic acid induced stretching; test: Analgesic activity, acetic acid induced stretching method; assay type: in vivo, male albino mice dd strain; settings: for ED50, Mean Value: 60 min
Procedure: as §1

[6] = J. Med. Chem. 16, 301 (1973); cited from earlier work
[7] = Side effects or toxicity; settings: in vivo
[8] = Morphine analgesia (Haffner method); assay type: in vivo, male mice dd strain; settings: subcutaneously
Procedure: as §1

[9] = stretching method, subcutaneous, effective ratio until 60 minutes, Lichfield-Wilcoxin method

Q: Which opiate dependence liability [1] does the source give for `Oc1ccc2c(c1)C13CCCCC1N(C2)N(CC1CC1)CC3` (racemic) [dl-KMG-86, dl-N-cyclopropylmethyl-3-hydroxy-9-azamorphinan] here?
A: The opiate dependence liability was “lacking opiate dependence liability”.

Q: And the “analgesic activity compared with morphine” value [2]?
A: The value was “remarkable analgesic activity as strong as that possessed by morphine”.

Q: What about the “confirmation in clinical studies of the activity found in mice” value [3] of the same compound?
A: Its value is “The activity found in mice was confirmed in clinical studies in humans”.

Q: What about the “Antagonist Dose (AD50)” value [4] of the same compound?
A: Its value is 4.70 mg/kg, S. C.

Q: And the “ED50, Mean Value” [5, 9]?
A: Its value is 1.63 mg/kg.

Q: What about the “activity relative to pentazocine” value [6] of the same compound?
A: The value was “about twice as active as pentazocine”.

Q: For `CC(C)=CCN1CCC2(C)c3cc(O)ccc3CC1C2C` (centres unmarked) [Pentazocine, reference compound], which ED50 ([5]; Mus musculus, sc, 1 h, stretching method, subcutaneous, effective ratio until 60 minutes, Lichfield-Wilcoxin method) is on record?
A: Its ED50 is 2.4 mg/kg.

Q: Which “Antagonist Dose (AD50)” value [4] does the source give for `Oc1ccc2c(c1)C13CCCCC1N(C2)N(CC1CC1)CC3` (stereo not drawn) [d-KMG-86, d-N-cyclopropylmethyl-3-hydroxy-9-azamorphinan] here?
A: Its value is 20 mg/kg, S. C.

Q: And the “ED50, Mean Value” [5, 9]?
A: The value was “ca. 80 mg/kg”.

Q: Which “side effects or toxicity” value [7] does the source give for `Oc1ccc2c(c1)C13CCCCC1N(C2)N(CC1CC1)CC3` (stereo not drawn) [l-KMG-86, l-N-cyclopropylmethyl-3-hydroxy-9-azamorphinan] here?
A: Its value is “no substantial side effects or toxicity”.

Q: And the “Antagonist Dose (AD50)” value [4]?
A: Its value is 2.20 mg/kg, S. C.

Q: And the “potency of l-isomer relative to dl-mixture” value ([5]; from Table I ED50 (stretching method))?
A: Its value is “about 3.5 fold”.

Q: And the “ED50, Mean Value” [5, 9]?
A: The value was 0.45 mg/kg.

Q: Which ED100 of morphine [8] does the source give for `CN1CC[C@]23c4c5ccc(O)c4O[C@H]2[C@@H](O)C=C[C@H]3[C@H]1C5` [morphine] here?
A: Its ED100 of morphine is 16 mg/kg.
